Values of other authors as cited in patent publication US20230320989A1, “SUSTAINED-RELEASE PHARMACEUTICAL FORMULATION OF FUSED TRICYCLIC ?-AMINO ACID DERIVATIVE AND PREPARATION METHOD THEREFOR” (SICHUAN HAISCO PHARMACEUTICAL CO., LTD., priority 2020, published 2023).

Details: patients with diabetic peripheral neuropathy

## NCC1(CC(=O)O)CCCCC1 [gabapentin]
  proportion of patients whose pain is relieved to a great extent: about 60%
